Measurements taken from patent US20160090556A1, “PRODUCTS COMPRISING MALODOR REDUCTION MATERIALS” (The Procter & Gamble Company, priority 2014, published 2016).
Where two headings read alike, the source gives them in different places.

Assays:
[1] = Probability of Ingredient Color Instability; type: physicochemical
[2] = Liquid dish neat product liquid-air partition coefficient; type: physicochemical
[3] = class code letter within Comment Code

CC1=C(CCC(C)C=O)C(C)(C)CCC1 (centres unmarked) [Material 560]
Probability of Ingredient Color Instability (Comment Code E/F) [1, 3]: F (Probability of Ingredient Color Instability<71%) | Log of liquid dish neat product liquid-air partition coefficient (Comment Code K/L) [2, 3]: K (Log of liquid dish neat product liquid-air partition coefficient greater than or equal to −7)

CC1=C2CC(C(C)(C)O)CCC2(C)CCC1 (centres unmarked) [Material 872]
Probability of Ingredient Color Instability (Comment Code E/F) [1]: F (Probability of Ingredient Color Instability<71%) | Log of liquid dish neat product liquid-air partition coefficient (Comment Code K/L) [2]: K (Log of liquid dish neat product liquid-air partition coefficient greater than or equal to −7) | Comment Code: Log of liquid dish neat product liquid-air partition coefficient ([2]; code letters K, L): K (Log of liquid dish neat product liquid-air partition coefficient greater than or equal to −7)

O=C(Oc1ccccc1)c1ccccc1 [Material 965]
Probability of Ingredient Color Instability (Comment Code E/F) [1]: F (Probability of Ingredient Color Instability<71%) | Log of liquid dish neat product liquid-air partition coefficient (Comment Code K/L) [2]: K (Log of liquid dish neat product liquid-air partition coefficient greater than or equal to −7)

C/C=C/c1cc(OC)c(OC)cc1OC [Material 924]
Probability of Ingredient Color Instability (Comment Code E/F) [1]: F (Probability of Ingredient Color Instability<71%) | Log of liquid dish neat product liquid-air partition coefficient (Comment Code K/L) [2]: K (Log of liquid dish neat product liquid-air partition coefficient greater than or equal to −7)

CCCCCCCCCCC=CC=O [Material 930]
Probability of Ingredient Color Instability (Comment Code E/F) [1]: F (Probability of Ingredient Color Instability<71%) | Log of liquid dish neat product liquid-air partition coefficient (Comment Code K/L) [2]: K (Log of liquid dish neat product liquid-air partition coefficient greater than or equal to −7)

CC(C)c1ccc(CCC=O)cc1 [Material 826]
Probability of Ingredient Color Instability (Comment Code E/F) [1]: F (Probability of Ingredient Color Instability<71%) | Log of liquid dish neat product liquid-air partition coefficient (Comment Code K/L) [2]: K (Log of liquid dish neat product liquid-air partition coefficient greater than or equal to −7)

CC(C)=CCCC1=CCC(C)(C=O)CC1 (centres unmarked) [Material 727]
Probability of Ingredient Color Instability (Comment Code E/F) [1]: F (Probability of Ingredient Color Instability<71%) | Log of liquid dish neat product liquid-air partition coefficient (Comment Code K/L) [2]: K (Log of liquid dish neat product liquid-air partition coefficient greater than or equal to −7)

C=C(OCC)C1C(C)(C)CC(=O)CC1(C)C [Material 182]
Probability of Ingredient Color Instability (Comment Code E/F) [1, 3]: F (Probability of Ingredient Color Instability<71%) | Log of liquid dish neat product liquid-air partition coefficient (Comment Code K/L) [2, 3]: K (Log of liquid dish neat product liquid-air partition coefficient greater than or equal to −7)

CC(C=O)Cc1ccc(C(C)C)cc1 (centres unmarked) [Material 478]
Probability of Ingredient Color Instability (Comment Code E/F) [1, 3]: F (Probability of Ingredient Color Instability<71%) | Log of liquid dish neat product liquid-air partition coefficient (Comment Code K/L) [2, 3]: K (Log of liquid dish neat product liquid-air partition coefficient greater than or equal to −7)

CC1=CC2CC(C=O)C1CC2C(C)C (centres unmarked) [Material 142]
Probability of Ingredient Color Instability (Comment Code E/F) [1, 3]: F (Probability of Ingredient Color Instability<71%) | Log of liquid dish neat product liquid-air partition coefficient (Comment Code K/L) [2, 3]: K (Log of liquid dish neat product liquid-air partition coefficient greater than or equal to −7)

CC1CC=CCCCCCCCC(=O)OCC1 (centres unmarked) [Material 52]
Probability of Ingredient Color Instability (Comment Code E/F) [1, 3]: F (Probability of Ingredient Color Instability<71%) | Log of liquid dish neat product liquid-air partition coefficient (Comment Code K/L) [2, 3]: K (Log of liquid dish neat product liquid-air partition coefficient greater than or equal to −7)

CCCCCC1C(=O)CCC1CC(=O)OC (centres unmarked) [Material 1083]
Probability of Ingredient Color Instability (Comment Code E/F) [1]: F (Probability of Ingredient Color Instability<71%) | Log of liquid dish neat product liquid-air partition coefficient (Comment Code K/L) [2]: K (Log of liquid dish neat product liquid-air partition coefficient greater than or equal to −7)

CC1(O)CCOC2(CCCCC2)C1 (centres unmarked) [Material 16]
Probability of Ingredient Color Instability (Comment Code E/F) [1, 3]: F (Probability of Ingredient Color Instability<71%) | Log of liquid dish neat product liquid-air partition coefficient (Comment Code K/L) [2, 3]: K (Log of liquid dish neat product liquid-air partition coefficient greater than or equal to −7)

N#CC(=C1CCCCC1)c1ccccc1 [Material 945]
Probability of Ingredient Color Instability (Comment Code E/F) [1]: F (Probability of Ingredient Color Instability<71%) | Log of liquid dish neat product liquid-air partition coefficient (Comment Code K/L) [2]: K (Log of liquid dish neat product liquid-air partition coefficient greater than or equal to −7)

CCCCCCCCCC=CC=O [Material 806]
Probability of Ingredient Color Instability (Comment Code E/F) [1]: F (Probability of Ingredient Color Instability<71%) | Log of liquid dish neat product liquid-air partition coefficient (Comment Code K/L) [2]: K (Log of liquid dish neat product liquid-air partition coefficient greater than or equal to −7)

CCOC(=O)C1OC1(C)c1ccccc1 (centres unmarked) [Material 377]
Probability of Ingredient Color Instability (Comment Code E/F) [1, 3]: F (Probability of Ingredient Color Instability<71%) | Log of liquid dish neat product liquid-air partition coefficient (Comment Code K/L) [2, 3]: K (Log of liquid dish neat product liquid-air partition coefficient greater than or equal to −7)

CCCCCC1C(=O)CCC1CC(=O)OC (centres unmarked) [Material 113]
Probability of Ingredient Color Instability (Comment Code E/F) [1, 3]: F (Probability of Ingredient Color Instability<71%) | Log of liquid dish neat product liquid-air partition coefficient (Comment Code K/L) [2, 3]: K (Log of liquid dish neat product liquid-air partition coefficient greater than or equal to −7)

CC1=CCCC2(C)OC2CCC(C)=CCC1 (racemic) [Material 568]
Probability of Ingredient Color Instability (Comment Code E/F) [1]: F (Probability of Ingredient Color Instability<71%) | Log of liquid dish neat product liquid-air partition coefficient (Comment Code K/L) [2]: K (Log of liquid dish neat product liquid-air partition coefficient greater than or equal to −7)

CCC1=C(O)C(=O)C(C)O1 (centres unmarked) [Material 259]
Probability of Ingredient Color Instability (Comment Code E/F) [1, 3]: F (Probability of Ingredient Color Instability<71%) | Log of liquid dish neat product liquid-air partition coefficient (Comment Code K/L) [2, 3]: K (Log of liquid dish neat product liquid-air partition coefficient greater than or equal to −7)

CC(C)CCCC(C)CCCC(C)C=O (centres unmarked) [Material 741]
Probability of Ingredient Color Instability (Comment Code E/F) [1]: F (Probability of Ingredient Color Instability<71%) | Log of liquid dish neat product liquid-air partition coefficient (Comment Code K/L) [2]: K (Log of liquid dish neat product liquid-air partition coefficient greater than or equal to −7)

CC1CC(C)(c2ccccc2)OC(C)O1 (centres unmarked) [Material 1126]
Comment Code: Probability of Ingredient Color Instability ([1]; codes E/F of the Comment Code, Table 1): F (Probability of Ingredient Color Instability<71%) | Comment Code: Log of liquid dish neat product liquid-air partition coefficient ([2]; codes K/L of the Comment Code, Table 1): K (Log of liquid dish neat product liquid-air partition coefficient greater than or equal to −7)

CCCCCCCC1CCCC1=O (centres unmarked) [Material 362]
Probability of Ingredient Color Instability (Comment Code E/F) [1, 3]: F (Probability of Ingredient Color Instability<71%)

CCCCCCCC(C)=O [Material 840]
Probability of Ingredient Color Instability (Comment Code E/F) [1]: F (Probability of Ingredient Color Instability<71%)

CCCCCC=C1CCCC1=O [Material 850]
Probability of Ingredient Color Instability (Comment Code E/F) [1]: F (Probability of Ingredient Color Instability<71%)

C=CC(C)(O)CCC=C(C)CCC=C(C)CCC=C(C)C (centres unmarked) [Material 303]
Probability of Ingredient Color Instability (Comment Code E/F) [1, 3]: F (Probability of Ingredient Color Instability<71%)
